Laboratory results published in US20230203043A1, “NOVEL IMIDAZOPYRAZINE DERIVATIVES” (Hoffmann-La Roche Inc., priority 2020, published 2023).
Where two headings read alike, the source gives them in different places.

System: Acinetobacter baumannii ATCC17961
Assay: Antimicrobial susceptibility testing: 90% growth inhibitory concentration (IC90) determination in Iso-Sensitest broth, OD600 growth
Format: cell-based
Conditions: strain ATCC 17961, OD600 growth over 16 h, read-out: A. baumannii ATCC 17961 IC90
Experimental: Antimicrobial Susceptibility Testing:
90% Growth Inhibitory Concentration (IC90) Determination
The in vitro antimicrobial activity of the compounds was determined according to the following procedure:
The assay used a 10-points Iso-Sensitest broth medium to measure quantitatively the in vitro activity of the compounds against Acinetobacter baumannii ATCC17961 or ATCC17968.
Stock compounds in DMSO were serially twofold diluted (e.g. range from 50 to 0.097 μM final concentration) in 384 wells microtiter plates and inoculated with 49 μl the bacterial suspension in Iso-Sensitest medium to have a final cell concentration of ˜5×10^(5) CFU/ml in a final volume/well of 50 ul/well. Microtiter plates were incubated at 35±2° C.
Bacterial cell growth was determined with the measurement of optical density at λ=600 nm each 20 minutes over a time course of 16 h. Growth inhibition was calculated during the logarithmic growth of the bacterial cells with determination of the concentration inhibiting 50% (IC50) and 90% (IC90) of the growth.
Table 7 provides the 90% growth inhibitory concentrations (IC90) in micromoles per liter of the compounds of present invention obtained against the strain Acinetobacter baumannii ATCC17961 and/or ATCC17968.

[1] = Acinetobacter baumannii, ATCC17961, 16 h

| SMILES | IC90 [1] | IC90 |
| --- | --- | --- |
| C#CCNC(=O)c1c(C)cc(Nc2nccn3c(-c4cn(Cc5nc(CC6CC6)no5)nc4C(F)(F)F)cnc23)cc1F [Example 38, 4-[[3-[1-[[3-(cyclopropylmethyl)-1,2,4-oxadiazol-5-yl]methyl]-3-(trifluoromethyl)pyrazol-4-yl]imidazo[1,2-a]pyrazin-8-yl]amino]-2-fluoro-6-methyl-N-prop-2-ynylbenzamide] | 327 nM |  |
| CCc1cc(Nc2nccn3c(-c4c[nH]nc4C(F)(F)F)cnc23)ccc1C(=O)NCCNC(=O)[C@@H]1CCCN1 [Example 39, (2S)-N-[2-[[2-ethyl-4-[[3-[3-(trifluoromethyl)-1H-pyrazol-4-yl]imidazo[1,2-a]pyrazin-8-yl]amino]benzoyl]amino]ethyl] pyrrolidine-2-carboxamide] | 470 nM |  |
| C#CCNC(=O)c1c(C)cc(Nc2nccn3c(-c4cn(CC#C)nc4C(F)(F)F)cnc23)cc1F [Example 40, 2-fluoro-6-methyl-N-prop-2-ynyl-4-[[3-[1-prop-2-ynyl-3-(trifluoromethyl)pyrazol-4-yl]imidazo[1,2-a]pyrazin-8-yl]amino] benzamide] |  | 196 nM |
| C#CCNC(=O)c1c(C)cc(Nc2nccn3c(-c4cn(CC=C)nc4C(F)(F)F)cnc23)cc1F [Example 41, 2-fluoro-6-methyl-4-[[3-[1-prop-2-enyl-3-(trifluoromethyl)pyrazol-4-yl]imidazo[1,2-a]pyrazin-8-yl]amino]-N-prop-2-ynylbenzamide] | 254 nM |  |
| C#CCNC(=O)c1c(C)cc(Nc2nccn3c(-c4cn(CCF)nc4C(F)(F)F)cnc23)cc1F [Example 42, 2-fluoro-4-[[3-[1-(2-fluoroethyl)-3-(trifluoromethyl)pyrazol-4-yl]imidazo[1,2-a]pyrazin-8-yl]amino]-6-methyl-N-prop-2-ynylbenzamide] | 354 nM |  |
| C#CCNC(=O)c1c(C)cc(Nc2nccn3c(-c4c[nH]nc4C(F)(F)F)cnc23)cc1F [Example 43, 2-fluoro-6-methyl-N-prop-2-ynyl-4-[[3-[3-(trifluoromethyl)-1H-pyrazol-4-yl]imidazo[1,2-a]pyrazin-8-yl]amino]benzamide] | 1950 nM |  |
| C#CCn1cc(-c2cnc3c(Nc4ccc(C(=O)NCCOCC(C)(C)N)c(CC)c4)nccn23)c(C(F)(F)F)n1 [Example 44, N-[2-(2-amino-2-methylpropoxy)ethyl]-2-ethyl-4-[[3-[1-prop-2-ynyl-3-(trifluoromethyl)pyrazol-4-yl]imidazo[1,2-a]pyrazin-8-yl]amino]benzamide] | 59 nM |  |
| C=CCn1cc(-c2cnc3c(Nc4ccc(C(=O)NCCOCC(C)(C)N)c(CC)c4)nccn23)c(C(F)(F)F)n1 [Example 45, N-[2-(2-amino-2-methylpropoxy)ethyl]-2-ethyl-4-[[3-[1-prop-2-enyl-3-(trifluoromethyl)pyrazol-4-yl]imidazo[1,2-a]pyrazin-8-yl]amino] benzamide] |  | 74 nM |
| C#CCn1cc(-c2cnc3c(Nc4ccc(C(=O)N5CCC(CN)CC5)c(CC)c4)nccn23)c(C(F)(F)F)n1 [Example 46, [4-(aminomethyl)piperidin-1-yl]-[2-ethyl-4-[[3-[1-prop-2-ynyl-3-(trifluoromethyl)pyrazol-4-yl]imidazo[1,2-a]pyrazin-8-yl]amino]phenyl] methanone] | 93 nM |  |
| C#CCn1cc(-c2cnc3c(Nc4ccc(C(=O)NCCCN)c(CC)c4)nccn23)c(C(F)(F)F)n1 [Example 47, N-(3-aminopropyl)-2-ethyl-4-[[3-[1-prop-2-ynyl-3-(trifluoromethyl)pyrazol-4-yl]imidazo[1,2-a]pyrazin-8-yl]amino] benzamide] |  | 105 nM |
| C=CCn1cc(-c2cnc3c(Nc4ccc(C(=O)NCCCN)c(CC)c4)nccn23)c(C(F)(F)F)n1 [Example 48, N-(3-aminopropyl)-2-ethyl-4-[[3-[1-prop-2-enyl-3-(trifluoromethyl)pyrazol-4-yl]imidazo[1,2-a]pyrazin-8-yl]amino] benzamide] |  | 117 nM |
| Cc1cc(Nc2nccn3c(-c4cn(CC(F)F)nc4C(F)(F)F)cnc23)cc(F)c1C(=O)NCCOCCN [Example 49, N-[2-(2-aminoethoxy)ethyl]-4-[[3-[1-(2,2-difluoroethyl)-3-(trifluoromethyl)pyrazol-4-yl]imidazo[1,2-a]pyrazin-8-yl]amino]-2-fluoro-6-methylbenzamide] | 120 nM |  |
| CCc1cc(Nc2nccn3c(-c4cn(CC(F)F)nc4C(F)(F)F)cnc23)ccc1C(=O)NCCOCC(C)(C)N [Example 50, N-[2-(2-amino-2-methylpropoxy)ethyl]-4-[[3-[1-(2,2-difluoroethyl)-3-(trifluoromethyl)pyrazol-4-yl]imidazo[1,2-a]pyrazin-8-yl]amino]-2-ethylbenzamide] | 121 nM |  |
| C=CCn1cc(-c2cnc3c(Nc4cc(C)c(C(=O)NCCOCCN)c(F)c4)nccn23)c(C(F)(F)F)n1 [Example 51, N-[2-(2-aminoethoxy)ethyl]-2-fluoro-6-methyl-4-[[3-[1-prop-2-enyl-3-(trifluoromethyl)pyrazol-4-yl]imidazo[1,2-a]pyrazin-8-yl]amino] benzamide] |  | 130 nM |
| CCc1cc(Nc2nccn3c(-c4cn(CC(F)F)nc4C(F)(F)F)cnc23)ccc1C(=O)NCCCN [Example 52, N-(3-aminopropyl)-4-[[3-[1-(2,2-difluoroethyl)-3-(trifluoromethyl)pyrazol-4-yl]imidazo[1,2-a]pyrazin-8-yl]amino]-2-ethylbenzamide] | 144 nM |  |
| C=CCn1cc(-c2cnc3c(Nc4ccc(C(=O)N5CCC(CN)CC5)c(CC)c4)nccn23)c(C(F)(F)F)n1 [Example 53, [4-(aminomethyl)piperidin-1-yl]-[2-ethyl-4-[[3-[1-prop-2-enyl-3-(trifluoromethyl)pyrazol-4-yl]imidazo[1,2-a]pyrazin-8-yl]amino]phenyl] methanone] | 157 nM |  |
| CCc1cc(Nc2nccn3c(-c4cn(CCF)nc4C(F)(F)F)cnc23)ccc1C(=O)NCCOCC(C)(C)N [Example 54, N-[2-(2-amino-2-methylpropoxy)ethyl]-2-ethyl-4-[[3-[1-(2-fluoroethyl)-3-(trifluoromethyl)pyrazol-4-yl]imidazo[1,2-a]pyrazin-8-yl]amino]benzamide] | 162 nM |  |
| C#CCn1cc(-c2cnc3c(Nc4ccc(C(=O)N[C@@H](C)CN)c(CC)c4)nccn23)c(C(F)(F)F)n1 [Example 55, N-[(2S)-1-aminopropan-2-yl]-2-ethyl-4-[[3-[1-prop-2-ynyl-3-(trifluoromethyl)pyrazol-4-yl]imidazo[1,2-a]pyrazin-8-yl]amino]benzamide] | 167 nM |  |
| CCc1cc(Nc2nccn3c(-c4cn(CCF)nc4C(F)(F)F)cnc23)ccc1C(=O)NCCCN [Example 56, N-(3-aminopropyl)-2-ethyl-4-[[3-[1-(2-fluoroethyl)-3-(trifluoromethyl)pyrazol-4-yl]imidazo[1,2-a]pyrazin-8-yl]amino]benzamide] | 194 nM |  |
| CCc1cc(Nc2nccn3c(-c4cn(CC(F)F)nc4C(F)(F)F)cnc23)ccc1C(=O)N[C@@H](C)CN [Example 57, N-[(2S)-1-aminopropan-2-yl]-4-[[3-[1-(2,2-difluoroethyl)-3-(trifluoromethyl)pyrazol-4-yl]imidazo[1,2-a]pyrazin-8-yl]amino]-2-ethylbenzamide] | 202 nM |  |
| CCc1cc(Nc2nccn3c(-c4cn(CC(F)F)nc4C(F)(F)F)cnc23)ccc1C(=O)N1CCC(CN)CC1 [Example 58, [4-(aminomethyl)piperidin-1-yl]-[4-[[3-[1-(2,2-difluoroethyl)-3-(trifluoromethyl)pyrazol-4-yl]imidazo[1,2-a]pyrazin-8-yl]amino]-2-ethylphenyl] methanone] | 209 nM |  |
| C#CCn1cc(-c2cnc3c(Nc4cc(C)c(C(=O)NCCOCCN)c(F)c4)nccn23)c(C(F)(F)F)n1 [Example 59, N-[2-(2-aminoethoxy)ethyl]-2-fluoro-6-methyl-4-[[3-[1-prop-2-ynyl-3-(trifluoromethyl)pyrazol-4-yl]imidazo[1,2-a]pyrazin-8-yl]amino] benzamide] |  | 216 nM |
| CCc1cc(Nc2nccn3c(-c4cn(CC#N)nc4C(F)(F)F)cnc23)ccc1C(=O)NCCOCC(C)(C)N [Example 60, N-[2-(2-amino-2-methylpropoxy)ethyl]-4-[[3-[1-(cyanomethyl)-3-(trifluoromethyl)pyrazol-4-yl]imidazo[1,2-a]pyrazin-8-yl]amino]-2-ethylbenzamide] | 230 nM |  |
| Cc1cc(Nc2nccn3c(-c4cn(CCF)nc4C(F)(F)F)cnc23)cc(F)c1C(=O)NCCOCCN [Example 61, N-[2-(2-aminoethoxy)ethyl]-2-fluoro-4-[[3-[1-(2-fluoroethyl)-3-(trifluoromethyl)pyrazol-4-yl]imidazo[1,2-a]pyrazin-8-yl]amino]-6-methylbenzamide] | 232 nM |  |
| CCc1cc(Nc2nccn3c(-c4cn(CCF)nc4C(F)(F)F)cnc23)ccc1C(=O)N1CCC(CN)CC1 [Example 62, [4-(aminomethyl)piperidin-1-yl]-[2-ethyl-4-[[3-[1-(2-fluoroethyl)-3-(trifluoromethyl)pyrazol-4-yl]imidazo[1,2-a]pyrazin-8-yl]amino]phenyl] methanone] | 242 nM |  |
| C=CCn1cc(-c2cnc3c(Nc4ccc(C(=O)N[C@@H](C)CN)c(CC)c4)nccn23)c(C(F)(F)F)n1 [Example 63, N-[(2S)-1-aminopropan-2-yl]-2-ethyl-4-[[3-[1-prop-2-enyl-3-(trifluoromethyl)pyrazol-4-yl]imidazo[1,2-a]pyrazin-8-yl]amino]benzamide] | 270 nM |  |
